The results in this text go back to ChEMBL document CHEMBL1122753, “Interaction of N4-hydroxy-2'-deoxycytidylic acid with thymidylate synthetase” (J Med Chem, 1984).

Experiment [1] concerns the target T1, Thymidylate synthase (Homo sapiens, UniProt P04818). Briefly: The apparent association constant (Ki) with dTMP synthetase enzyme from chick embryo in the absence of CH2-H4 folate was evaluated; Active. On the set-up: species or system Gallus gallus. Particulars: target entry is the homologue from another species.
Target sequence in this assay (P04818 whole entry): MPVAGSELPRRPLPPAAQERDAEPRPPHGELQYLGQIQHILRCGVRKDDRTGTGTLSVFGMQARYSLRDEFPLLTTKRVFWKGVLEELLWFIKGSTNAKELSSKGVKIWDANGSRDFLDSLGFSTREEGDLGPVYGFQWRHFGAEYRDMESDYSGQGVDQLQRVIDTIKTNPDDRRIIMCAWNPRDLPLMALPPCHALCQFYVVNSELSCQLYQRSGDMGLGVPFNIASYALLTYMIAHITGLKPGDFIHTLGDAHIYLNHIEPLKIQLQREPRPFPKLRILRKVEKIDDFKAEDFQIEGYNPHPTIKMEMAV
The target of experiment [2] is T2, Thymidylate synthase (Lactobacillus casei, UniProt P00469).
T2 sequence (P00469 whole entry): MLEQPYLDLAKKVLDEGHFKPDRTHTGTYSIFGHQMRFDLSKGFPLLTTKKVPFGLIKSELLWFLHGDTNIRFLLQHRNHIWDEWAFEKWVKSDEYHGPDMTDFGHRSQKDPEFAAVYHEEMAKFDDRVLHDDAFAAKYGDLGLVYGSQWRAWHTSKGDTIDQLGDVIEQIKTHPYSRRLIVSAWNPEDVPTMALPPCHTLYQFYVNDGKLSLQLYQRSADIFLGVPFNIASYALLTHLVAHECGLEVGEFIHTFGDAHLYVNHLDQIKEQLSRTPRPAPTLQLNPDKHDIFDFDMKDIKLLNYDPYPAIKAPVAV
Briefly: The apparent association constant (Ki) with dTMP synthetase enzyme from chick embryo in the absence of CH2-H4 folate was evaluated. On the set-up: species or system Lacticaseibacillus casei.

In experiment [3] the target is T1, Thymidylate synthase. Briefly: Compound was evaluated for time-dependent loss of activity with use of 15 nM of dTMP synthetase enzyme from chick embryo in the presence of […] of CH2-H4 folate at about 20 seconds. Type of experiment: functional. Particulars: Gallus gallus; target entry is the homologue from another species.
Target sequence in this assay (P04818 2-313 limits assumed): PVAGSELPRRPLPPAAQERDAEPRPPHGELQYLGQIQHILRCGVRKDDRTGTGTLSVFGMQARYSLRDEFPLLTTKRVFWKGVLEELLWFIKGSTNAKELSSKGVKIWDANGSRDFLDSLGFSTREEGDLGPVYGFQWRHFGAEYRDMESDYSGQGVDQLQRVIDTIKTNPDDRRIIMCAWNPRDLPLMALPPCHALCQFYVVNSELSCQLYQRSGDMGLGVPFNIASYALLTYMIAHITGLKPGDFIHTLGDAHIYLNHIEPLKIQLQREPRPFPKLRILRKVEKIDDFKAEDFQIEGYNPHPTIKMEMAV
Experiment [4] deals with T1, Thymidylate synthase. Nature of the experiment: Compound (4.5 uM) was evaluated for the percent binding to the excess dTMP synthetase (3.9 uM and 7.8 uM sites) enzyme from chick embryo, […] of CH2-H4 folate. This complex was incubated 25 degrees Celsius for 2 hours. The note with it: Gallus gallus; target entry is the homologue from another species.
Target sequence in this assay (P04818 2-313 limits assumed): as above
Experiment [5] concerns the target T1, Thymidylate synthase. Nature of the experiment: Compound was evaluated for the dissociation of the radiolabeled N4-HOdCMP by competitive binding to the excess dTMP synthetase; Active. The note with it: Gallus gallus.
Target sequence in this assay (P04818 2-313 limits assumed): as above
Experiment [6] deals with T1, Thymidylate synthase. Nature of the experiment: The apparent association constant (Ki) with dTMP synthetase enzyme from chick embryo in the absence of CH2-H4 folate was evaluated using conventional spectrophotometric assay; Active. On the set-up: species or system Gallus gallus.
Target sequence in this assay (P04818 whole entry): as the sequence (P04818 whole entry) above

Molecules are shown by their SMILES. The source made the active and inactive calls. The calls are words filed in the database; no cut-off is given here.

Regarding `Cc1cn([C@H]2C[C@H](O)[C@@H](COP(=O)(O)O)O2)c(=O)[nH]c1=O` [THYMIDINE MONOPHOSPHATE], the Ki entry at Thymidylate synthase [1] is recorded as “Active”.

As for `O=c1nc(NO)ccn1[C@H]1C[C@H](O)[C@@H](COP(=O)(O)O)O1`, the Ki on Thymidylate synthase [2] worked out at 8 µM. Besides, on Thymidylate synthase [3], the Loss of activity is 50%. The Binding on Thymidylate synthase [4] stood at 90%. The Dissociation entry at Thymidylate synthase [5] was “Active”.

As for `O=c1ccn([C@H]2C[C@H](O)[C@@H](COP(=O)(O)O)O2)c(=O)[nH]1` [DEOXYURIDINE MONOPHOSPHATE], at Thymidylate synthase [6], the Ki entry is recorded as “Active”.
